Data taken from ChEMBL document CHEMBL5696441 (Nat Chem Biol, 2011).
pIC50: −log10 of the molar value.

Experiments:
[1] = biological target: Casein kinase I isoform epsilon (Homo sapiens) (UniProt P49674); assay: Inhibition of CSNK1E (unknown origin) assessed as remaining activity at 1 uM by Kinome scan method relative to control
[2] = biological target: Casein kinase II subunit alpha' (Homo sapiens) (UniProt P19784); assay: Inhibition of CSNK2A2 (unknown origin) assessed as remaining activity at 1 uM by Kinome scan method relative to control
[3] = biological target: Inhibitor of nuclear factor kappa-B kinase subunit epsilon (Homo sapiens) (UniProt Q14164); assay: Inhibition of IKK-epsilon (unknown origin) assessed as remaining activity at 1 uM by Kinome scan method relative to control
Sequence of Inhibitor of nuclear factor kappa-B kinase subunit epsilon (Homo sapiens) (Q14164 whole entry): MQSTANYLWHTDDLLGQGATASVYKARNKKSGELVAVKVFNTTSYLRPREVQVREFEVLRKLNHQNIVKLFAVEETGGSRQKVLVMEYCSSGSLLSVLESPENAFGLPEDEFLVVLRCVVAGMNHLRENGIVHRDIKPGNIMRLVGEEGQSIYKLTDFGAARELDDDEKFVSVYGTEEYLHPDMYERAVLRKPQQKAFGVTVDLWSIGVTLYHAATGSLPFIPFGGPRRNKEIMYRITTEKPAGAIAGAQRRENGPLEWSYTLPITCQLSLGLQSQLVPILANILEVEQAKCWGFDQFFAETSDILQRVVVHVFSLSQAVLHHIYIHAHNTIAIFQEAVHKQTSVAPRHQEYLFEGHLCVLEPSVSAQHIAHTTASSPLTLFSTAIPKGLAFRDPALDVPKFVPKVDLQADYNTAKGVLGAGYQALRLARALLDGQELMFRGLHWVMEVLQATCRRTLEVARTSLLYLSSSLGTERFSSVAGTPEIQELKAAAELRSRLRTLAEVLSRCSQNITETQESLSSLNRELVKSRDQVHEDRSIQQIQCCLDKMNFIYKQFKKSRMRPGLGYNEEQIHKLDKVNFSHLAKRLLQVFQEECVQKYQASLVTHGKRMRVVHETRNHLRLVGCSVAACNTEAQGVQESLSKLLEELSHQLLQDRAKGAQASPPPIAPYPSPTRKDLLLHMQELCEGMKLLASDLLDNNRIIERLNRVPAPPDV

[4] = biological target: Serine/threonine-protein kinase 3 (Homo sapiens) (UniProt Q13188); assay: Inhibition of MST2 (unknown origin) assessed as remaining activity at 1 uM by Kinome scan method relative to control
Sequence of Serine/threonine-protein kinase 3 (Homo sapiens) (Q13188 whole entry): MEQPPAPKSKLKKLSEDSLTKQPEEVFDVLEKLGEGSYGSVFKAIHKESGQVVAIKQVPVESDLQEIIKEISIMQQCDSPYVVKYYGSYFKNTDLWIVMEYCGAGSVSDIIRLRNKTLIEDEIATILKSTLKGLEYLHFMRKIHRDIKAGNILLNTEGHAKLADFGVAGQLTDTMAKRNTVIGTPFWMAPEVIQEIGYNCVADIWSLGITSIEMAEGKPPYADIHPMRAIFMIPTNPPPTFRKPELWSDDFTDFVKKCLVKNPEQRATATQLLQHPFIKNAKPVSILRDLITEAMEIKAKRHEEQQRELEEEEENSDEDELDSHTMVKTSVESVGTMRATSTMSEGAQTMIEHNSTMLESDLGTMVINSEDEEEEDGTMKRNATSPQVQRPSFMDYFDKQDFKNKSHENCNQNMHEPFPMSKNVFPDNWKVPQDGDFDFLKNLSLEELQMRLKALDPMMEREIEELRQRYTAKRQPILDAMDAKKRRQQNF

[5] = biological target: Serine/threonine-protein kinase Nek9 (Homo sapiens) (UniProt Q8TD19); assay: Inhibition of NEK9 (unknown origin) assessed as remaining activity at 1 uM by Kinome scan method relative to control
Sequence of Serine/threonine-protein kinase Nek9 (Homo sapiens) (Q8TD19 whole entry): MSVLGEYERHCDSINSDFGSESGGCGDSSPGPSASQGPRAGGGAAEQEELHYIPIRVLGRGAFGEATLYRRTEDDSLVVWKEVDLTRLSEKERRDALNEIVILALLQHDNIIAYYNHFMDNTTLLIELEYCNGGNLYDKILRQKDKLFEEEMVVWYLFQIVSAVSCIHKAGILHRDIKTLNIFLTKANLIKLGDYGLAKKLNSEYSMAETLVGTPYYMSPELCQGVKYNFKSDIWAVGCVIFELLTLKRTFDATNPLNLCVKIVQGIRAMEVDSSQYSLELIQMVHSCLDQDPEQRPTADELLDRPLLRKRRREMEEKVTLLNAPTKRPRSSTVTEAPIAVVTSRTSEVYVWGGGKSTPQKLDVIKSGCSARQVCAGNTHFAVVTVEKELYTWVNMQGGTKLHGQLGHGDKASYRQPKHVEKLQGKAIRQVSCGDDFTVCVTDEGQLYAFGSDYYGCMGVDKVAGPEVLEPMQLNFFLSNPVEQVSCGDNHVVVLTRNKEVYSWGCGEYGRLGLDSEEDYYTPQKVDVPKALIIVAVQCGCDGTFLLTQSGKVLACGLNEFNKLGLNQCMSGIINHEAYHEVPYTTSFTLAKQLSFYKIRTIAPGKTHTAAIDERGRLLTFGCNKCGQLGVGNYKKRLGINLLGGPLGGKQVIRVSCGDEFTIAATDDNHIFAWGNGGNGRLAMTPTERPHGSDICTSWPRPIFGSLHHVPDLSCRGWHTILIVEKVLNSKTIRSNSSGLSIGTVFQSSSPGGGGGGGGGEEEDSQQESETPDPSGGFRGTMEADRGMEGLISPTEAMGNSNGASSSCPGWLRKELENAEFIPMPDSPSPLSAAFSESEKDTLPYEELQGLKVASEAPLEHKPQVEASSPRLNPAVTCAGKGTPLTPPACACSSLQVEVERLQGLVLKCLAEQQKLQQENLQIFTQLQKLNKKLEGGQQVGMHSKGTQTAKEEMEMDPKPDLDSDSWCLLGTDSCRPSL

[6] = biological target: Serine/threonine-protein kinase SIK3 (Homo sapiens) (UniProt Q9Y2K2); assay: Inhibition of QSK (unknown origin) assessed as remaining activity at 1 uM by Kinome scan method relative to control
Sequence of Serine/threonine-protein kinase SIK3 (Homo sapiens) (Q9Y2K2 whole entry, looked up): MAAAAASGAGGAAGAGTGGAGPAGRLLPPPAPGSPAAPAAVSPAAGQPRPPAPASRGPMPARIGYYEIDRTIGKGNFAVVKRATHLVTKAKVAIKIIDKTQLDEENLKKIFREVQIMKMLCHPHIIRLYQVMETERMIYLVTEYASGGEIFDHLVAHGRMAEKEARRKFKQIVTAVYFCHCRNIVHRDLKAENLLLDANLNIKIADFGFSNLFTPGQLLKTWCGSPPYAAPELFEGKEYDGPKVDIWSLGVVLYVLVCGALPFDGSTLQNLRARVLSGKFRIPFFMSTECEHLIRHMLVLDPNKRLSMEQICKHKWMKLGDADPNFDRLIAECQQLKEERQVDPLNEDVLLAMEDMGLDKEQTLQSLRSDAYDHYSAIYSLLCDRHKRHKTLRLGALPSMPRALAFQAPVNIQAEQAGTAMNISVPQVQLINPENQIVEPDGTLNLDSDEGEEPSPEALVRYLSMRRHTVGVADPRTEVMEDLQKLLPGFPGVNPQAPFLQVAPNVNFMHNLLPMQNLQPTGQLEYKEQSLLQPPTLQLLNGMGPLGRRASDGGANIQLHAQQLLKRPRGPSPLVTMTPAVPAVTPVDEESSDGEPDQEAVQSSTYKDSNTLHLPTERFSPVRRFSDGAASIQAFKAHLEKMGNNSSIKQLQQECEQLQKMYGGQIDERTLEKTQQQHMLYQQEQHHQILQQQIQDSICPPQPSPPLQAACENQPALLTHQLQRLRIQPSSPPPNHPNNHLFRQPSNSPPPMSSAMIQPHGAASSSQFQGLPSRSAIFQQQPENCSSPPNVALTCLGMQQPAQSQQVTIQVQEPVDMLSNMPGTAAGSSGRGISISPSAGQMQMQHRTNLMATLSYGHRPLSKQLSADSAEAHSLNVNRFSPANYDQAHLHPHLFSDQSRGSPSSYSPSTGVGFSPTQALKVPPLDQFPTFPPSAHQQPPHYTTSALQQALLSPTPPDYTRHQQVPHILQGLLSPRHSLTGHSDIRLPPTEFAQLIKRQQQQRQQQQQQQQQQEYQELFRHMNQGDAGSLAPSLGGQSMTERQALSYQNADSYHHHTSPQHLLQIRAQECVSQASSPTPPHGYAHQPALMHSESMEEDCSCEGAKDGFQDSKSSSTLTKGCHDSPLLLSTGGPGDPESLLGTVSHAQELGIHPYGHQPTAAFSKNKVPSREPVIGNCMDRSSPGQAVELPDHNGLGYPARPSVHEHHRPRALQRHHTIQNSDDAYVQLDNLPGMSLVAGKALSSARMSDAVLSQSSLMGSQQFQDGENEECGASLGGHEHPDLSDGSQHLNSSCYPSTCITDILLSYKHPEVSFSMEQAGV

[7] = biological target: Serine/threonine-protein kinase RIO3 (Homo sapiens) (UniProt O14730); assay: Inhibition of RIOK3 (unknown origin) assessed as remaining activity at 1 uM by Kinome scan method relative to control
[8] = biological target: Tyrosine-protein kinase SYK (Homo sapiens) (UniProt P43405); assay: Inhibition of SYK (unknown origin) assessed as remaining activity at 1 uM by Kinome scan method relative to control
[9] = biological target: Bone morphogenetic protein receptor type-1A (Homo sapiens) (UniProt P36894); assay: Inhibition of human BMPR1A assessed as residual activity at 1 uM using casein as substrate in presence of 33P-ATP by ProQinase assay relative to control
[10] = biological target: Eukaryotic translation initiation factor 2-alpha kinase 3 (Homo sapiens) (UniProt Q9NZJ5); assay: Inhibition of human EIF2AK3 assessed as residual activity at 1 uM using casein as substrate in presence of 33P-ATP by ProQinase assay relative to control
Sequence of Eukaryotic translation initiation factor 2-alpha kinase 3 (Homo sapiens) (Q9NZJ5 whole entry): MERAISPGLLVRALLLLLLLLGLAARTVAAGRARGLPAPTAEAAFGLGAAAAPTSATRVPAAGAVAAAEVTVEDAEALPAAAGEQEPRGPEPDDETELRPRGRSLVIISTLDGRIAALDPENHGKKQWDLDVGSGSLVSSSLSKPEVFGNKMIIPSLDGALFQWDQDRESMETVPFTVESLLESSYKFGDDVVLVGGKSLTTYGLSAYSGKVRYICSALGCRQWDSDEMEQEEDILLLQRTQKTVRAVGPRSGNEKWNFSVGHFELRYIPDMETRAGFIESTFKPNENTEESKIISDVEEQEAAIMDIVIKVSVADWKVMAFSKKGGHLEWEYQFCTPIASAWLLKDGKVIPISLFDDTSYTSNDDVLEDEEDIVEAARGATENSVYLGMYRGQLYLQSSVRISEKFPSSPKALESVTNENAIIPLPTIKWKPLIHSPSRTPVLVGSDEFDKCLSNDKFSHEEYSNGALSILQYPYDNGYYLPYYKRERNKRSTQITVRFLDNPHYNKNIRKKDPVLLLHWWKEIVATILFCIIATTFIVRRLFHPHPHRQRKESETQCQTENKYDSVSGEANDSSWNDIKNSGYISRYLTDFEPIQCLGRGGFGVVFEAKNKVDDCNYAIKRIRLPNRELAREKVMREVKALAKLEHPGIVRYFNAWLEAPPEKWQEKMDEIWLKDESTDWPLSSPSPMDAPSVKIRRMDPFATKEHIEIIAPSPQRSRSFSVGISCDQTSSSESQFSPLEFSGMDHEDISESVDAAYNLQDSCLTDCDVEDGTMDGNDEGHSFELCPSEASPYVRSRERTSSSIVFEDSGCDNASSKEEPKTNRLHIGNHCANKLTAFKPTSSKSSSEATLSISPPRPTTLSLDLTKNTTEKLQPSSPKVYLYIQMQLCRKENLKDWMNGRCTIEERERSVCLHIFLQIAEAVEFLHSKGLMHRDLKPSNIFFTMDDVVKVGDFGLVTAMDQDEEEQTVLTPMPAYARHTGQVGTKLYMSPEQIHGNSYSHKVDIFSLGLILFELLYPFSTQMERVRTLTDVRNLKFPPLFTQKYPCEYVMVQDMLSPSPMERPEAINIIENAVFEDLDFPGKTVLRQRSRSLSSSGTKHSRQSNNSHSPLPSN

[11] = biological target: Ephrin type-A receptor 2 (Homo sapiens) (UniProt P29317); assay: Inhibition of human EPHA2 assessed as residual activity at 1 uM using polyEy as substrate in presence of 33P-ATP by ProQinase assay relative to control
[12] = biological target: Homeodomain-interacting protein kinase 3 (Homo sapiens) (UniProt Q9H422); assay: Inhibition of human HIPK3 assessed as residual activity at 1 uM using RBER-CHKtide as substrate in presence of 33P-ATP by ProQinase assay relative to control
[13] = biological target: Serine/threonine-protein kinase Nek4 (Homo sapiens) (UniProt P51957); assay: Inhibition of human NEK4 assessed as residual activity at 1 uM using MBP as substrate in presence of 33P-ATP by ProQinase assay relative to control
[14] = biological target: Protein kinase C iota type (Homo sapiens) (UniProt P41743); assay: Inhibition of human PKCiota assessed as residual activity at 1 uM using 3xChocktide-PKC(19-31) as substrate in presence of 33P-ATP by ProQinase assay relative to control
[15] = biological target: Serine/threonine-protein kinase N2 (Homo sapiens) (UniProt Q16513); assay: Inhibition of human PRK2 assessed as residual activity at 1 uM using RBER-CHKtide as substrate in presence of 33P-ATP by ProQinase assay relative to control
[16] = biological target: Serine/threonine-protein kinase D2 (Homo sapiens) (UniProt Q9BZL6); assay: Inhibition of human PRKD2 assessed as residual activity at 1 uM using RBER-CHKtide as substrate in presence of 33P-ATP by ProQinase assay relative to control
[17] = biological target: T1, Serine/threonine-protein kinase PLK4 (Homo sapiens) (UniProt O00444); assay: Inhibition of human SAK assessed as residual activity at 1 uM using p38-alpha KA as substrate in presence of 33P-ATP by ProQinase assay relative to control
T1 sequence (whole entry): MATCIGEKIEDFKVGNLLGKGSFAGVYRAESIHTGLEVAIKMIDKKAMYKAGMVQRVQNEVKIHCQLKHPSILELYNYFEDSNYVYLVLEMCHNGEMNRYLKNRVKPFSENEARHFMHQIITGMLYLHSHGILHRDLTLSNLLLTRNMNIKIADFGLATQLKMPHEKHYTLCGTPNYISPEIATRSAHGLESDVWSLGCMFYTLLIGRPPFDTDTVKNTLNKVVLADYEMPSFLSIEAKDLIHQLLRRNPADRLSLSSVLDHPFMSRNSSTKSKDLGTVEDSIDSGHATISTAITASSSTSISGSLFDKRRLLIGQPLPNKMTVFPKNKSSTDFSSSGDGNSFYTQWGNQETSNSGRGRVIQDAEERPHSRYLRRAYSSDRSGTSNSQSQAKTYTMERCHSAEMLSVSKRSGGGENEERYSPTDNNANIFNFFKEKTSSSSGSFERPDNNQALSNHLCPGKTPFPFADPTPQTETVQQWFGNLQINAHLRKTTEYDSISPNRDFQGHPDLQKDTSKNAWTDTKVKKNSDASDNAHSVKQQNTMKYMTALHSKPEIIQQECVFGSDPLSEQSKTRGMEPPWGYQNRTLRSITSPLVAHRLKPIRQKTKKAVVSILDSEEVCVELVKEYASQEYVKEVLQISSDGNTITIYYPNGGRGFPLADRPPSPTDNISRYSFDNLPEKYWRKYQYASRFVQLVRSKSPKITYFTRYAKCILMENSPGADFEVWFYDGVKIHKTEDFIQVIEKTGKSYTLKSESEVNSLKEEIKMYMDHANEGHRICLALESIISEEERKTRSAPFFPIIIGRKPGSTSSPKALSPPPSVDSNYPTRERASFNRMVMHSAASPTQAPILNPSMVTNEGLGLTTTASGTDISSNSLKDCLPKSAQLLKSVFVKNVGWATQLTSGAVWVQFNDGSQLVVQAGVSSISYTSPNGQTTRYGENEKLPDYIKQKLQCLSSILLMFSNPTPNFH

[18] = biological target: Serine/threonine-protein kinase TAO2 (Homo sapiens) (UniProt Q9UL54); assay: Inhibition of human TAOK2 assessed as residual activity at 1 uM using casein as substrate in presence of 33P-ATP by ProQinase assay relative to control
[19] = biological target: Serine/threonine-protein kinase VRK1 (Homo sapiens) (UniProt Q99986); assay: Inhibition of human VRK1 assessed as residual activity at 1 uM using RBER-CHKtide as substrate in presence of 33P-ATP by ProQinase assay relative to control
Sequence of Serine/threonine-protein kinase VRK1 (Homo sapiens) (Q99986 whole entry): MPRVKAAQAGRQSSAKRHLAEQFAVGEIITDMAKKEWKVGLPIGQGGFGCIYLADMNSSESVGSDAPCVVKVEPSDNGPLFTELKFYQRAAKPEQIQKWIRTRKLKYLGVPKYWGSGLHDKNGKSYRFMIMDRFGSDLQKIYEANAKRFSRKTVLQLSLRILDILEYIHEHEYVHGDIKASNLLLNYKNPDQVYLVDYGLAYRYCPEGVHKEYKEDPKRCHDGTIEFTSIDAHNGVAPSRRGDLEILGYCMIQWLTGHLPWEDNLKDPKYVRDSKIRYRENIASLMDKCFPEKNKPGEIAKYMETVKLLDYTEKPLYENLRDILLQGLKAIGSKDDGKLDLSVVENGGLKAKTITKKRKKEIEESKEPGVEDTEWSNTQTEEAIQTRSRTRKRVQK

[20] = Anti-inflammatory activity against human derived medium respond PBMC cells assessed as inhibition in stimulated IL-13 cytokine release incubated for 2 hrs in the presence of LPS/SEB/aCD28 by Luminex based sandwich immunoassay; assay type: functional, cell-based

Q: Which results are given for O=C1c2ccc(Nc3ccc(F)cc3F)cc2CCc2ccc(OC[C@H](O)CO)cc21 [Skepinone-L]?
A: Activity [1]: 100%; Activity [2]: 100%; Activity [3]: 100%; Activity [4]: 100%; Activity [5]: 89%; Activity [6]: 100%; Activity [7]: 99%; Activity [8]: 100%; Activity [9]: 100%; Activity [10]: 95%; Activity [11]: 119%; Activity [12]: 91%; Activity [13]: 99%; Activity [14]: 91%; Activity [15]: 95%; Activity [16]: 85%; Activity [17]: 62%; Activity [18]: 102%; Activity [19]: 88%; pIC50 [20]: 5.36
